From patent US7947708B2, “Compounds modulating C-kit activity” (Plexxikon, Inc., priority 2004, dated 2011)

Legend:
M-07e cell line = assay: M-07e cell proliferation stimulated by SCF (CellTiter-Glo growth inhibition); format: cell-based; details: 72 h, SCF 100 ng/ml, three days, CellTiter-Glo luminescence, read-out: IC50, growth inhibition of SCF stimulated M-07e cells
Procedure: This inhibition is measured by the effect of compound concentration on cell growth to assess IC50 values. M-07e cells were seeded at 5×10^4 cells per well of a 96 well cell culture plate in 50 μl of cell culture medium of Iscove's Medium 1× (MOD, CellGro Mediatech catalog #15-016-CV) supplemented with 10% FBS (HyClone catalog #SH30071.03). […] Cells were also treated with staurosporine as a positive control. Cells were stimulated by adding 20 μl of 600 ng/ml SCF to a final concentration of 100 ng/ml (Biosource International SCF kit ligand catalog #PHC2115) in cell culture medium. The cells were incubated at 37° C., 5% CO2 for three days. CellTiter-Glo Buffer (Promega Cell Viability Assay catalog #G7573) and substrate were equilibrated to room temperature, and enzyme/substrate Recombinant Firefly Luciferase/Beetle Luciferin was reconstituted. The cell plates were equilibrated to room temperature for 30 minutes, then lysed by addition of an equivalent volume of the Celltiter-Glo Reagent. […] The plates were read on a Victor Wallac II using Luminescence protocol modified to read 0.1 s per well. The luminescence reading assesses the ATP content, which correlates directly with cell number such that the reading as a function of compound concentration is used to determine the IC50 value.

[1] = system: cells with activating c-Kit mutations in the catalytic region; details: Ma et al., 2002; cited from earlier work

Compound	IC50 (M-07e cell line) [nM]	inhibition of cells with c-Kit mutations in the catalytic region [1]
FC(F)(F)c1ccc(CNc2ccc(Cc3c[nH]c4ncccc34)cn2)cc1 [Compound 1-3, [5-(1H-Pyrrolo[2,3-b]pyridin-3-ylmethyl)-pyridin-2-yl]-(4-trifluoromethyl-benzyl)-amine]	< 1000	
Cc1ccc(NC(=O)c2ccc(CN3CCN(C)CC3)cc2)cc1Nc1nccc(-c2cccnc2)n1 [ST1571]		did not inhibit the cells
